Assay results as given in patent publication US20080206149A1, “METHOD, DYE AND MEDICAMENT FOR STAINING THE INTERNAL LIMITING MEMBRANE, EPIRETINAL MEMBRANE, THE VITREOUS AND/OR THE CAPSULE OF AN EYE” (LUDWIG-MAXIMILIANS-UNIVERSITAT MUNCHEN, priority 2005, published 2008).

Tests used:
[1] = test system: ARPE-19 cells; test: Life-dead assay (propidium iodide / Hoechst 33342), ARPE-19 cells; format: cell-based; conditions: ARPE-19 cells, 0.2% and 0.02% dye, 24 hours after treatment, compared to BSS plus
Protocol: Confluent RPE and ARPE-19 cells were prepared and treated as described above. Cell viability was quantified based on a two-color fluorescence assay in which the nuclei of nonviable cells appear red because of staining by the membrane-impermeable dye propidium iodide (Sigma), whereas the nuclei of all cells were stained with the membrane-permeable dye Hoechst 33342 (Intergen, Purchase, N.Y.). […] For evaluation of cell viability, cells were washed in PBS and incubated with 2.0 μg/mL propidium iodide and 1.0 μg/mL Hoechst 33342 for 20 minutes at 37° C. Subsequently, cells were analyzed with an epifluorescence microscope (Axioskop; Zeiss, Göttingen, Germany). The labeled nuclei were then counted in fluorescence photomicrographs, and dead cells were expressed as a percentage of total nuclei in the field. The data are based on counts from three experiments performed in duplicate wells, with three to five documented representative fields per well.

[2] = test system: vitreous; test: Staining of the vitreous during vitrectomy in humans using BPB (Example 1); format: in vivo; conditions: 0.2%
Protocol: All patients (n=9) gave their written informed consent before surgery. […] A standard three port pars plana vitrectomy was performed. First, the transparent vitreous was removed as thoroughly as possible using the vitrectomy probe. Then fluid air exchange was performed and a few drops of the dye (BPB, 0.2%) were injected. After one minute, the dye was washed out by irrigation.

[3] = test system: vitreous and posterior hyaloid; test: Vitrectomy for idiopathic macular hole (Example 3); format: in vivo, humans
Description: This study was approved by the local ethics committee and Institutional Review Board (IRB) and written informed consent was obtained from all patients. Six consecutive patients with idiopathic macular hole, 3 males and 3 females with a mean age of 68 were included. Holes were graded as stage 2 (n=3), stage 3 (n=2) and stage 4 (n=1). The dye was also used in four patients with retinal detachments, 2 females and 2 males with a mean age of 57 years.
Pre- and postoperatively, all patients underwent a complete clinical examination including measurement of best corrected visual acuity (VA), slit lamp examination, tonometry, and funduscopy using a 78 diopter lens (Volk Optical, Mentor, Ohio, USA). In macular hole patients, we additionally performed optical coherence tomography (OCT) (Stratus-OCT, Carl Zeiss Meditec, Jena, Germany), Goldmann perimetry, multifocal electroretinogram (ERG) and fundus photographs. Patients were seen one day before surgery and then in six weeks intervals. Postoperatively, ERG and Goldmann perimetry were performed at the six weeks follow-up visit and were not repeated if unremarkable.
Bromphenol blue powder was dissolved and diluted using BSS plus and sterilized using a 0.22 μm syringe filter. A final dye concentration of 0.2% was then injected into the eye. Vitrectomy first consisted of a core vitrectomy, followed by vitreous removal in the periphery in the area of the sclerotomy sites by indentation of the globe using a squint hook. Then an attempt was made to induce a posterior vitreous detachment by applying suction at the optic nerve head.
The dye was applied as follows: During pars plana vitrectomy for a macular hole a fluid air-exchange was performed prior to dye injection to achieve a maximum dye concentration on the retinal surface. Then, a few drops of the dye were injected over the posterior pole and the globe was gently moved to allow for an adequate dye distribution (FIG. 8A). This was followed by removal of excessive dye by irrigation after one minute. Then epiretinal tissue was removed if present and an attempt to peel the ILM using an end-gripping forceps was made in selected cases. Surgery was completed by fluid-air exchange and intraocular gas tamponade (hexafluoroethane (C2F6)) as previously described (Haritoglou C., Gandorfer A., Gass C. A., et al., “Indocyanine green-assisted peeling of the internal limiting membrane in macular hole surgery affects visual outcome: a clinicopathologic correlation”, Am J. Ophthalmol 2002; 134: 836-41). During surgery for retinal detachment the dye was applied after induction of a PVD and injection of approximately 1.5 ml heavy liquid (PFCL, perfluorocarbon, Fluoron GmbH, Neu-Ulm, Germany) and fluid-air exchange without removing PFCL (FIG. 8B). Using this approach, we obtained not only a higher dye concentration in the anterior segment of the eye as the dye can not be further diluted by PFCL, but we could also prevent an uncontrolled distribution especially in the subretinal space and excessive contact with the lens capsule, which may result in an unwanted staining effect. In addition we obtained a staining of the vitreous in the periphery as intended. C2F6 was used as an intraocular tamponade at the end of surgery. The staining characteristics were then evaluated by the surgeon.

[4] = test system: ARPE-19 cells; test: MTT assay, ARPE-19 cells; conditions: 0.2% and 0.02% dye, 10 minutes exposure, compared to BSS plus control
Protocol: ARPE-19 cells, a human retinal pigment epithelial cell line (42), were purchased from ATCC (Manassas, Va., USA) and grown in a 1:1 mixture of Dulbecco's modified Eagles medium and Ham's F12 medium (DMEM/Ham's F12, Biochrom), supplemented with 10% FCS (Biochrom).
For exposure of dyes RPE and ARPE-19 cells were kept for 24 hours under serum free conditions. After washing cells three times with PBS, cells were incubated for 10 minutes with 300 μl of BSS plus containing 0.2% or 0.02% of dye, respectively. […] The dye was then removed by carefully rinsing cells with BSS plus three times. After 24 hours incubation with serum containing media the cell proliferation assay was performed. RPE cells (p3-6) were seeded in 24-well plates and exposed to two concentrations (0.2 and 0.02%) of dyes. BSS plus alone and H2O2, (200 μL/mL) served as controls.
The tetrazolium dye-reduction assay (MTT; 3-[4,5-dimethylthiazol-2-yl]-2,5-diphenyl tetrazolium bromide;) was used to determine cell survival rate. […] The medium was removed, cells were washed with PBS, and 1000 μL/well MTT solution (1.5 mL MTT stock, 2 mg/mL in PBS, plus 28.5 mL DMEM) was added. RPE cells were incubated at 37° C. for 1 hour. The formazan crystals that formed were dissolved by the addition of dimethyl sulfoxide (DMSO; 1000 μL/well). Absorption was measured by a scanning multiwell spectrophotometer at 550 nm (Molecular Probes, Garching, Germany). […] Experiments were performed in triplicate and repeated three times. RPE and ARPE-19 cells of the same passage incubated with BSS without addition of dyes served as control. Statistical comparison between dye concentrations was performed with SPSS (Mann-Whitney-U-Test).
The MTT test as performed in this study is a well established test for the assessment of cell viability, but relies on calorimetric measurement of a blue (550 nm) formazan reaction product. This color overlaps with the absorption spectra of some of the dyes tested. […] Cell monolayers were treated with dyes as per the experiments described above but absorbance readings were performed without prior application of MTT. […]

Question: With `O=S1(=O)OC(c2cc(Br)c(O)c(Br)c2)(c2cc(Br)c(O)c(Br)c2)c2ccccc21` [Bromophenol blue, Bromophenole blue] as the molecule, how does the “cell viability, nuclei of nonviable cells labeled with propidium iodide” value [1] read?
Answer: did not affect cell survival

Question: And the “complications of complete removal of the vitreous” value ([2]; humans)?
Answer: without complications

Question: What about the “staining of vitreous remnants adherent to the retinal surface” value ([2]; washed out after one minute, patients with macular pucker or macular hole) of the same molecule?
Answer: bluish staining

Question: What about the “staining of remnant vitreous in the periphery at the vitreous base” value ([3]; 0.2%, macular hole surgery) of the same molecule?
Answer: could be seen in all cases

Question: And the “staining of the retinal surface or the ILM” value ([3]; 0.2%, three cases with complete PVD and no epiretinal membrane)?
Answer: no staining of the retinal surface or the ILM

Question: What about the “amplitudes in postoperative ERG examinations” value ([3]; in vivo) of the same molecule?
Answer: no affection of the amplitudes

Question: And the “loss of VA” value ([3]; in vivo)?
Answer: No loss of VA

Question: What about the “peripheral visual field defects indicating dye related toxicity” value ([3]; in vivo) of the same molecule?
Answer: nor did we observe peripheral visual field defects

Question: What about the “staining of the adherent posterior hyaloid membrane” value ([3]; macular hole patients with incomplete PVD) of the same molecule?
Answer: very useful

Question: And the VA postoperatively ([3]; overall patients)?
Answer: 20/40

Question: And the VA preoperatively ([3]; overall patients)?
Answer: 20/100

Question: And the macular hole closure ([3]; second operation necessary in one case)?
Answer: All macular holes could be closed successfully

Question: What about the “cell survival of ARPE-19 cells (MTT)” value [4] of the same molecule?
Answer: no significant impact on cell survival
